The text below walks through data of patent USRE32393E, “Composition for enhancing the administration of pharmacologically active agents” (KabiVitrum AB, priority 1967, dated 1987).

By LD50 is commonly meant the dose expected to kill half of the subjects tested. Low readings indicate greater toxicity, high ones lower toxicity.

Counter-ions that a name gives are not always drawn.

For data set [1], the system named is chloralose-anaesthetized cat. Kind of data set: effect on blood pressure in chloralose-anaesthetized cat. The data set is classed as in vivo. To be noted: intravenous. On the procedure:
The effects of the emulsion on the blood pressure when given intravenously in a dose of 5-10 mg/kg was registered on a chloralose-anaesthetized cat.

The next data set relates to mouse. Kind of data set: sleeping time in mouse (loss of righting reflex). The class given is in vivo. Conditions: single dose. The text has this:
The sleeping time after a single dose injection of the emulsion was shorter than the sleeping time after injection of an aqueous solution of sodium hexobarbital:
In accordance with common practice, the sleeping time has been set as the duration of the loss of the righting reflex.

The nature of data set [2]: pH value of phenyramidol preparations. Conditions: aqueous solution. The class given is physicochemical.
The test system of data set [3] is male albino mice of the NMRI strain. Kind of data set: intravenous toxicity (LD50, survival time) of mecamylamine preparations in mice. To be noted: ± S.E. The data set is classed as in vivo. The text has this: (§1) Mecamylamine (3-methylaminoisocamphane hydrochloride) is a ganglion-blocking secondary amine, and as a base, it is an oily liquid which is soluble in lipids. Its toxicity (LD50) after intravenous administration has been estimated in male albino mice of the NMRI strain in accordance with the method of the Nordic Pharmacopoeia. The following preparations were used:
(§2) Mecamylamine hydrochloride, 1% dissolved in saline
(§3) Mecamylamine base, dissolved in soybean oil and emulsified in the conventional way. Final concentration 1%.
(§4) Mecamylamine base, directly emulsified in 5.5% glucose solution with the aid of Pluronic F-68 (a registered trade mark for a nonionic emulsifier consisting of a block polymer of ethylene oxide and propylene oxide, from Wyandotte Chemical Corporation, described on page 392 of the Extra Pharmacopoeia, Martindale, 26th Edition) and an ultrasonic apparatus (20.000 Hz). Final concentration 1%.
(§5) The injections were given in the dorsal tail vein at a speed of 0.1 ml per 5 seconds.

Assay in data set [4]: as above
The class given is in vivo, male albino mice of the NMRI strain. To be noted: mouse, in vivo, 1% preparations, fiducial limits at P = 0.05.
Text: as §1, §2, §3, §4, §5

Data set [5] has as its system hind leg of cats anaesthetized with chloralose. To be noted: intraarterial, about 1-2 mg/kg.

`CN1C(=O)NC(=O)C(C)(C2=CCCCC2)C1=O` (stereo not drawn) [sodium hexobarbital]: the “duration of blood pressure depression, emulsion and sodium hexobarbital solution” value in data set [1] is listed as “about the same duration”. The “depression of blood pressure” value in data set [1] (5-10 mg/kg) is recorded as “about 6 mm Hg”. Besides, the Sleeping time with mouse (72 mg/kg) turned out to be 172 s; with mouse (86 mg/kg), 905 s.
Consider `OC(CNc1ccccn1)c1ccccc1` (stereo not drawn) [phenyramidol hydrochloride], for which the “pH value compared with the emulsion” value in data set [2] is on record as “lower pH value”.
Consider `CNC1(C)C2CCC(C2)C1(C)C` (stereo not drawn) [Mecamylamine HCl, 3-methylaminoisocamphane hydrochloride], for which the “Survival time (time from the injections to death)” value in data set [3] was 55 ± 5.1 s. In data set [4], this molecule returned an LD50 of 16.3 mg/kg.
In the case of `CC1CC(OC(=O)C(O)c2ccccc2)CC(C)(C)C1` (stereo not drawn) [Cyclandelate, 3,5,5-trimethylcyclohexyl mandelate], the onset of vasodilatation entry in data set [5] is on record as “within a few seconds”. The vasodilatation result in data set [5] (especially in noradrenaline induced vasoconstriction) was “marked vasodilatation”.
